Here are results for five molecules from patent publication US8084459B2, “Substituted quinazolinones for treating neurological conditions” (Prana Biotechnology Ltd, priority 2004, dated 2011).

Where “and” joins values, the source holds several entries; their conditions need not be identical. Equal entries are not always repeated.

Series [1] can be described thus: Assay 16 mouse plasma levels of test compounds. The series is classed as in vivo. Conditions: for Conc. in mouse plasma: listed as PB 1076, 30 mg/kg. The procedure: Assay 16. Determination of Mouse Plasma Levels of Test Compounds PB 1075
Oral administration of PB 1075 at 30 mg/kg, as a suspension in Na-Carboxymethyl Cellulose (CMC) was administered by oral gavage to four mice. Two mice were sacrificed 30 minutes after administration and two mice were sacrificed 60 minutes after administration. Blood was obtained by cardiac puncture and plasma separated by centrifugation.
The concentration of PB 1075 was determined by LC/MS using the triple quadrupole instrument. The mobile phase consisted of an acetonitrile (ACN)/water gradient (containing 0.05% Formic acid) and the column was a Phenomenex Lunea 5 um C8 (50×2 mm) column.
The supplied acute toxicity mouse plasma samples were directly injected following a protein precipitation with ACN. The analytical method in plasma was linear in the range of 10 to 10,000 ng/ml (R^2=0.994). Recovery of PB 1075 from plasma was ˜100%.
Oral administration of PB 1076 at 30 mg/kg, as a suspension in Na-Carboxymethyl Cellulose (CMC) was administered by oral gavage to four mice. Two mice were sacrificed 30 minutes after administration and two mice were sacrificed 60 minutes after administration. Blood was obtained by cardiac puncture and plasma separated by centrifugation.
The concentration of PB 1076 was determined by LC/MS using the triple quadrupole instrument. The mobile phase consisted of an acetonitrile (ACN)/water gradient (containing 0.05% Formic acid) and the column was a Phenomenex Luna 5 μM C8 (50×2 mm) column.
The mouse plasma samples were directly injected following a protein precipitation with ACN. The analytical method in plasma was linear in the range of 500 to 10,000 ng/ml (R^2=0.999). Recovery of PB 1076 from plasma was ˜85%.
Oral administration of PB 1077 at 30 mg/kg, as a suspension in Na-Carboxymethyl Cellulose (CMC) was administered by oral gavage to four mice. Two mice were sacrificed 30 minutes after administration and two mice were sacrificed 60 minutes after administration. Blood was obtained by cardiac puncture and plasma separated by centrifugation.
The concentration of PB 1077 was determined by LC/MS using the triple quadrupole instrument. The mobile phase consisted of an acetonitrile (ACN)/water gradient (containing 0.05% Formic acid) and the column was a Phenomenex Luna 5 μM C8 (50×2 mm) column.
The mouse plasma samples were directly injected following a protein precipitation with ACN. The analytical method in plasma was linear in the range of 5 to 5,000 ng/ml (R^2=0.999). Recovery of PB 1077 from plasma was ˜92%.

The next series addresses T1, Aβ 1-42 (Homo sapiens, UniProt P05067).
T1 construct: The reaction solutions contained Aβ 1-42 at concentrations
Nature of the series: Assay 1 Fluorometric H2O2 assay (peroxide). The series is classed as biochemical. Conditions: inhibition of H2O2 generation by Aβ with copper. The procedure:
Assay 1. Fluorometric H2O2 Assay
A fluorometric assay was used to test the ability of a test compound to inhibit hydrogen peroxide generation by Aβ in the presence of copper based on dichlorofluoroscein diacetate (DCF; Molecular Probes, Eugene Oreg.). The DCF solution (5 mM) in 100% dimethyl sulphoxide (previously purged with argon for 1 hr at 20° C.) was deacetylated in the presence of 0.025M NaOH for 30 min and neutralised at pH 7.4 to a final concentration of 1 mM. Horseradish peroxidase (HRP) stock solution was prepared to 1 μM at pH 7.4. The reactions were carried out in PBS, pH 7.4 in a 96 well plate (total volume=250 μl/well). The reaction solutions contained Aβ 1-42 at concentrations in the range of 50 nM to 1 μM, copper-glycine chelate (Cu-Gly), was prepared by adding CuCl2 to glycine in the ratio of 1:6 and added to the Aβ in the proportion 2Cu-Gly:1Aβ), reducing agents including dopamine (5 μM) or ascorbic acid, deacetylated DCF 100 μM, and HRP, 0.1 μM. 1-10 μM EDTA or another chelator may also be present as a control for free copper, but was not required for the assay to function. The reaction mixture was incubated at 37 C for 60 min. Catalase (4000 units/ml) and H2O2 (1-2.5 μM) standards in PBS pH 7.4 may be included as positive controls. Fluorescence was recorded using a plate reader with excitation and emission filters at […] respectively. H2O2 concentration may be established by comparing fluorescence with the H2O2 standards. Inhibition of Aβ H2O2 production was assayed by including a given concentration of test compound(s) in the test wells.

Another series concerns Aβ plaques. Nature of the series: Assay 14 transgenic mouse brain immunohistochemistry (plaque score). The format is in vivo. Conditions: APP2576 mice. The source says:
Assay 14. Transgenic Mouse Brain Immunohistochemistry
The APP2576 transgenic mouse (Hsiao et al., 1996) as referred to in Assay 11 is utilized in this assay. The contralateral formalin-fixed mouse brain tissue is coronally cut. Sections (10 μm) are taken from the corresponding sites and treated with 80% formic acid for antigen retrieval. The primary antibody used is monoclonal antibody 1E8, which recognizes epitopes between residues 18 and 22 of Aβ (SmithKline Beecham, UK). Immunoreactivity is developed with secondary antibody linked to horseradish peroxidase (using a 3,39-diaminobenzidinechromagen) (Dako) and alkaline phosphatase (using 5-bromo-4-chloro 3-indoxyl phosphate and nitroblue tetrazolium chloride chromagen) (Dako). Plaque abundance per section is assessed by two operators blinded to treatment according to the following scale:
1=plaques present but very sparse
2=several plaques present
3=numerous plaques visible in restricted areas
4=plaques abundant and not restricted to any particular area.
Intermediate values eg 2.5 are assigned where applicable. Students ‘t’ test is used for comparisons between groups.

Series [2] deals with soluble and insoluble Aβ in the brain. Nature of the series: Assay 11 effect on Aβ deposits in transgenic animals (soluble and insoluble Aβ, Western blot). The format is in vivo, APP2576 transgenic mouse. The note with it: APP2576 mice. A general note: Immunoblotting shows a protein as a band on a membrane.
Series [3] has as its target T2, A-beta 1-42 aggregates formed by precipitation with zinc (Homo sapiens, UniProt P05067).
T2 construct: host or cells: chemically synthesised peptide
Nature of the series: Assay 17 synthetic amyloid plaque disaggregation assay (thioflavin T). The series is classed as biochemical. The note with it: for Assay 17 percentage disaggregation at 5 uM: 5 uM (printed as 5/%); for EC50: Aβ1-42/Zn/ThT aggregates, 2 hours, 37 degrees. The procedure: Assay 17. Synthetic Amyloid Plaque Disaggregation Assay
This assay measures the ability of test compounds to dissolve aggregates of synthetic Alzheimer's A-beta 42 residue peptide formed by precipitation with zinc.
The synthetic plaque disaggregation assay is a thioflavin T fluorescence-based assay which measures the ability of a test compound to disaggregate synthetic aggregates generated by the incubation of Alzheimer's amyloid A-beta protein (Aβ) in the presence of zinc.
The 42 residue A-beta which is the form most prevalent in Alzheimer's amyloid plaques is precipitated by the addition of zinc salts to form a beta sheet conformational aggregate physicochemically congruent with the crystalline amyloid plaque cores. […] Solubilisation of the metal bound aggregates by a test compound will result in reduced fluorescence as the beta sheet conformation is lost. The activity of a compound in this assay is a combination of its metal chelating properties, solubility, hydrophobicity and structural elements which influence interaction with the amyloid mass.
The assay models the process by which a test compound is acting, either to compete for bound metals with Aβ or alternatively to displace metals by competitively binding at the metal binding site, resulting in Aβ precipitated by zinc, being solubilised, as an in vitro model of plaque disaggregation.
Aliquots of synthetic Aβ peptide are prepared for convenience. Aβ is dissolved in distilled H2O and peptide concentration is assessed by absorption at 214 nm against a validated standard curve. Abeta/Zn aggregates in the presence of solvent only (DMSO) and control vehicle (PBS) are included in each assay as negative controls. The test compounds were dissolved in DMSO to a concentration of 5 mM. Dilutions were made in DMSO as appropriate to 100 times the desired final concentration and added immediately to the A-beta aggregates.
A-beta 1-42 is incubated with ZnCl2 and Thioflavine T (ThT) in a molar ratio of (1:2:2) for 24 hours at 37 degrees on a rotating wheel in PBS pH 6.6. Following incubation, aggregates are incubated with test drug for a further 2 hours at 37 degrees with rotation. PBS blank, untreated aggregates and DMSO controls are included with each experiment. After 2 hour incubation, samples are measured for ThT fluorescence using an LS55 (Perkin Elmer) fluorimeter in a cuvette.
Data are generated in FL Winlab software (Perkin Elmer) and analysed using GraphPad Prism v4.0 software. Data are calculated as the average of multiple reads.
The two values together provide a measure of the efficiency of disaggregation.

Series [4] can be described thus: Assay 3(d) test compound cytotoxicity (MTS). The series is classed as cell-based. The note with it: BL6Jx129sv, mouse, primary cortical neuronal cultures, cortical neurons; for viability at 4 days, 1 µM: read-out: Assay 3(d) Cytotoxicity (% viable at 1 uM); for viability at 4 days, 10 µM: read-out: Assay 3(d) Cytotoxicity (% viable at 10 uM). The procedure: Primary Cortical Neuronal Cultures
Cortical cultures were prepared as previously described (White et al., 1998). Embryonic day 14 BL6Jx129sv mouse cortices were removed, dissected free of meninges and dissociated in 0.025% (wt/vol) trypsin. Dissociated cells were plated in 48 well culture plates at a density of 2×10^6 cells/mL in MEM with 25% (vol/vol) FCS and 5% (vol/vol) HS and incubated at 37° C., 2 hrs. Media was then replaced with Neurobasal media (Invitrogen Life Technologies) and B27 supplements (Invitrogen Life Technologies). Cultures were maintained at 37° C. in 5% CO2. Prior to experimentation, the culture medium was replaced with Neurobasal media and B27 minus antioxidants (Invitrogen Life Technologies).
(a) MTS Assay for Cell Viability
Cell viability is determined using the MTS assay. Culture medium is replaced with fresh neurobasal medium plus B27 supplements minus antioxidants. 1/10 volume MTS solution (Cell Titre 96 Aqueous One, Promega Corporation) and incubated at 37° C., 2 hrs. 200 microlitre aliquots are measured with a spectrophotometer at 560 nm.
(d) Assay for Test Compound Cytoxicity
Neuronal cortical cells were cultured for five days as per Assay 2 in NB media and B27 supplement.
On day six the test compounds were added to the neuronal cell cultures in NB media and B27 supplement minus antioxidants.
Test compounds were dissolved in 100% DMSO to a concentration of 2.5 mM (10 mM if excess compound was weighed out per vial—then diluted to 2.5 mM). 2.5 mM stock solution was serially diluted 1 in 10 to give working solutions of 250 uM, 25 uM, 2.5 uM. Test compounds were not added directly to cells, instead they were added to a 48 well ‘Drug Plate’ as comprised below:
Preparation of “Drug Plate”:
• Well 1: 576 ul NB+B27 (no antioxidant)*+24 ul 2.5 uM test compound • Well 2: 576 ul NB+B27 (no antioxidant)+24 ul 25 uM test compound • Well 3: 576 ul NB+B27 (no antioxidant)+24 ul 250 uM test compound • Well 4: 576 ul NB+B27 (no antioxidant)+24 ul 2.5 uM test compound • Well 5: 576 ul NB+B27 (no antioxidant)+24 ul 25 uM test compound • Well 6: 576 ul NB+B27 (no antioxidant)+24 ul 250 uM test compound • Well 7: 576 ul NB+B27 (no antioxidant)+24 ul test compound diluent** • Well 8: 600 ul NB+B27 (no antioxidant)
The Drug Plate was incubated at 37° C. for 15 mins. 200 ul of each well was added in triplicate to the corresponding cell plate. The cell plate was incubated at 37° C., for 4 days, (2 compounds are tested on each plate of cells).
* NB media and B27 (no antioxidants),
** PBT diluent 10% DMSO in NB+B27 (no antioxidants)
On completion of the assay, 1/10 volume MTS was added per well of plate (ie 25 ul/250 ul). The plates were incubated at 37° C. for 2 hrs, and then absorbance was read at 560 nm.

T2 sequence (P05067 672-713 limits assumed): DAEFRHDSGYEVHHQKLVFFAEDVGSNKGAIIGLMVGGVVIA
T1 sequence (P05067 672-713 limits assumed): as above

The IC50 is the concentration that inhibits the measured activity by half. Read a high IC50 as lower potency. `Br.O=c1c2c(Cl)cc(Cl)c(O)c2ncn1CC1CC1` [Compound 1076]: the “Conc. in mouse plasma” value in series [1] (30 min after oral dosing at 30 mg/kg, single mouse) was 1593.61 ng/mL; in series [1] (60 min after oral dosing at 30 mg/kg, single mouse), 1167.52 ng/mL and 2697.62 ng/mL. Also, the “Assay 16 Mice plasma concentration” value in series [1] (highest level found in mice (Up to), oral dosing 30 mg/kg described for PB 1075-1077) is on record as “Up to 2698 ng/mL”. Further, the concentration at 30 min in series [1] (mouse, plasma, po, 30 mg/kg, 30 min after oral dosing at 30 mg/kg, single mouse, read-out: Conc. in mouse plasma) is 2330 ng/mL. Moreover, the IC50 at Aβ 1-42 amounted to 450 nM. Moreover, the “Plaques score: average count score per treatment group relative to the vehicle (sham) treated group” value in the series on Aβ plaques is −29% (plaque). In series [2] (insoluble Aβ), the “Tg mice Insoluble Fraction: % change compared with vehicle alone control mice” value was −21% (insol). Besides, the “Tg mice Soluble Fraction: % change compared with vehicle alone control mice” value in series [2] (soluble Aβ) is on record as −24% (sol).

The term EC50 denotes the concentration giving half of the maximal effect. With `Br.O=c1c2c(Cl)cc(Cl)c(O)c2ncn1Nc1ccc(F)cc1F` [Compound 1100], in series [3], the “Assay 17 percentage disaggregation at 5 uM” value is 42% and the 50% effective concentration (EC50) was 17 µM. This molecule also had a concentration for half-maximal inhibition (IC50) on Aβ 1-42 of 420 nM. In series [4], the viability at 4 days, 1 µM amounted to 100% and the viability at 4 days, 10 µM worked out at 92%.

On to `Br.O=c1c2c(Cl)cc(Cl)c(O)c2ncn1Cc1cccc(Cn2cnc3c(O)c(Cl)cc(Cl)c3c2=O)n1` [Compound 1101], for which, in series [3], the “Assay 17 percentage disaggregation at 5 uM” value is 45 5/% and the EC50 is 11.7 µM. This molecule had an IC50 at Aβ 1-42 of less than 4100 nM. Also, in series [4], the viability at 4 days, 1 µM amounted to 89% and the viability at 4 days, 10 µM was determined as 17%.

Consider `CCN(CC)Cc1nc2c(O)c(Cl)cc(Cl)c2c(=O)[nH]1` [Compound 1128], for which, in series [3], the “disaggregation (rating in words)” value is “very good (A test compound able to achieve an IC50 at less than 20 μM and scoring greater than 40% disaggregation at 5 μM is considered ‘very good’)”; the “Assay 17 percentage disaggregation at 5 uM” value is 41 5/%; the EC50 came out at 13.2 µM. For the same molecule, on Aβ 1-42, it took 340 nM to reach half-maximal inhibition (IC50).

Take `O=c1c2c(Cl)ccc(O)c2ncn1CC1CC1` [Compound 1132]: in series [3], the “Assay 17 percentage disaggregation at 5 uM” value was 16 5/%.
